Columns and labels:
[1] = method code SF-AS, from DOI: 10.1016/0378-5173(85)90003-1
[2] = method code SF, from PMID: 26783178
[3] = not given; remark: listed apart in the source
[4] = not given; remark: listed apart in the source
[5] = method code SF, from DOI: 10.1002/ps.2780350215
[6] = not given; remark: listed apart in the source
[7] = method code SF-RC, from DOI: 10.1016/j.bmc.2006.11.022, PMID: 17293116; settings: pH 7.4
[8] = method code SF-HPLC, from DOI: 10.1023/a:1015956705293, PMID: 3244625
[9] = method code SF, from DOI: 10.1016/0378-5173(85)90077-8
[10] = not given; remark: listed apart in the source
[11] = method code SF-AS, from DOI: 10.1016/s0022-5347(24)07568-2, PMID: 4149453; settings: pH 7.5
[12] = not given; remark: listed apart in the source
[13] = pH 7.4
[14] = method code SF-AS, from DOI: 10.1002/qua.560100722
[15] = not given; remark: listed apart in the source
[16] = method code SF-HPLC, from DOI: 10.1021/jm00169a024, PMID: 2194033; settings: pH 7.4
[17] = method code SF-AS, from DOI: 10.1016/0006-2952(90)90117-4, PMID: 2344368; settings: pH 7.5
[18] = not given; remark: listed apart in the source
[19] = method code SF-AS, from DOI: 10.1016/j.arabjc.2011.11.013

## Cn1nnnc1SCC1=C(C(=O)OCOC(=O)C(C)(C)C)N2C(=O)C(NC(=O)Cc3csc(N)n3)C2SC1 (stereo not given)
[1]; pH 4.6
  logD: 1.36

## CCc1ccc(S(=O)(=O)NCCC[C@H]2C(=O)N(c3ccc(C)cc3)[C@@H]2c2ccc(NS(=O)(=O)c3ccc(C)cc3)cc2)cc1
[2]
  logP: 3.9

## C[C@@H]1C[C@@]2(C)[C@@H](CC[C@@H]3[C@@H]2CC[C@]2(C)[C@@H](O)CC[C@@H]32)CC1=O
other
  logP: 3.99

## Cc1cccc2c1OP(=O)(OCC1OC(n3cc(/C=C/Br)c(=O)[nH]c3=O)CC1OC(=O)C(N)C(C)C)OC2 (stereo not given)
[3]
  logP: -0.1

## Cc1ccc(C(=O)CCCN2CCC(O)(c3ccc(Cl)cc3)CC2)cc1
[4]
  logP: 3.44

## Cc1cc(=O)c(C(=O)Nc2ccccc2)c(C)n1CCc1ccccc1
[5]
  logP: 2.04

## O=C(Nc1ccc2ncnc(Nc3ccc(F)c(Cl)c3)c2c1)c1cccc(I)c1
[6]
  logP: 5.58

## CC(CCN1CCC(O)(c2ccc(Cl)cc2)CC1)c1ccc(F)cc1 (stereo not given)
[4]
  logP: 4.02

## CNc1ccc(-c2nc3ccc(-c4nc5ccc(Cl)cc5s4)cc3s2)cc1
[7]
  logD: 3.05

## C[C@]12CCC(=O)C=C1CC[C@@H]1[C@@H]2[C@@H](O)C[C@@]2(C)[C@H]1CC[C@]2(O)C(=O)COC(=O)CCCCCC(N)=O
[8]
  logP: 2.3

## CCCCCCCC(=O)OCC(=O)[C@@]1(O)CC[C@H]2[C@@H]3CCC4=CC(=O)CC[C@]4(C)[C@H]3[C@@H](O)C[C@@]21C
[9]
  logP: 4.37

## CN(C)c1ccc(-c2nc3ccc(-c4nc5ccc(F)cc5s4)cc3s2)cc1
[7]
  logD: 2.99

## CCCCOc1cc(C(=O)NCCN(CC)CC)c2ccccc2n1
[10]
  logP: 4.19

## CCCCCCCCOC(=O)CCC(NC(=O)c1ccc(N(C)Cc2cnc3nc(N)nc(N)c3n2)cc1)C(=O)OCCCCCCCC (stereo not given)
[11]
  logD: 2.16

## CC(C)N1C=CCC(C(=O)OC2CCC3C4CCc5cc(O)ccc5C4CC23C)=C1 (stereo not given)
[12]
  logP: 4.6

## CCc1cccc(CC)c1NC(=O)c1c(C)n(Cc2ccccc2)c(C)cc1=O
[5]
  logP: 2.9

## COc1ccc(C(=O)CCCN2CCC(O)(c3ccc(Cl)cc3)CC2)cc1
[4]
  logP: 2.9

## C[C@]12C=CC(=O)C=C1CC[C@@H]1[C@@H]2[C@@H](O)C[C@@]2(C)[C@H]1CC[C@]2(O)[C@@H](O)C(=O)NCc1ccccc1
[13]
  logD: 1.51

## COc1cccc2c1C(=O)c1c(O)c3c(c(O)c1C2=O)C[C@@](O)(C(C)=NNC(=O)c1ccccc1)C[C@@H]3O[C@H]1C[C@H](N)[C@H](O)[C@H](C)O1
[14]; pH 8.8
  logD: 0.76

## COC(=O)CCCCCC(=O)OCC(=O)C1(O)CCC2C3CCC4=CC(=O)CCC4(C)C3C(O)CC21C (stereo not given)
[8]
  logP: 3.7

## Cc1cc(C(=O)N2Cc3ccc(C(=O)N(C)CCF)n3Cc3ccccc32)ccc1-c1ccccc1C(F)(F)F
[15]
  logP: 5.2

## CCN1C[C@H]([C@@H](O)[C@H](CC2CCCCC2)NC(=O)[C@@H](Cc2cnc[nH]2)NC(=O)[C@@H](Cc2ccc(OC)cc2)NC(=O)N(C)CCOCOCCOC)OC1=O
[16]
  logD: 2.03

## Fc1ccc(C(c2ccc(F)cc2)N2CCN(C/C=C/c3ccccc3)CC2)cc1
[10]
  logP: 4.83

## COc1ccc(CN2CCN(c3ccccc3)CC2)c(OC)c1OC
[10]
  logP: 3

## CCCCCOC(=O)CC[C@H](NC(=O)c1ccc(N(C)Cc2cnc3nc(N)nc(N)c3n2)cc1)C(=O)OCCCCC
[11]
  logD: 1.33

## COc1cccc2c1C(=O)c1c(O)c3c(c(O)c1C2=O)CC(O)(C(C)=O)CC3OC1CC(O)C(O)C(C)O1 (stereo not given)
[17]
  logD: 1.34

## NC(=O)c1ccc2c(ccn2CC(=O)Oc2ccc(-c3ccccc3)cc2)c1
[18]
  logP: 2.4

## Cc1ccc(N2C(=O)[C@H](CCCNS(=O)(=O)c3ccc(OC(F)(F)F)cc3)[C@H]2c2ccc(NS(=O)(=O)c3ccc(C)cc3)cc2)cc1
[2]
  logP: 3.78

## CN1C=CCC(C(=O)O[C@H]2CC[C@H]3[C@@H]4CCc5cc(O)ccc5[C@H]4CC[C@]23C)=C1
[12]
  logP: 4.52

## COc1cccc2c1C(=O)c1c(O)c3c(c(O)c1C2=O)CC(O)(C(C)=O)CC3OC1CC(NC(=O)CN)C(O)C(C)O1 (stereo not given)
[14]; pH 7.8
  logD: 0.64

## C[C@@H]1CC2=CC(=O)CC[C@@H]2[C@H]2CC[C@@]3(C)[C@@H](CC[C@]3(C)O)[C@@H]21
other
  logP: 3.19

## O=C(Cn1ccc2cc(C(=O)O)ccc21)Oc1ccccc1-c1ccccc1
[18]
  logP: 3.1

## Cn1nnnc1SCC1=C(C(=O)OCOC(=O)C(C)(C)C)N2C(=O)C(NC(=O)C(O)c3ccccc3)C2SC1 (stereo not given)
[1]; pH 4.5
  logD: 0.85

## Cc1cccc2c1OP(=O)(OCC1OC(n3cc(C=CBr)c(=O)[nH]c3=O)CC1OC(=O)C(C)C)OC2 (stereo not given)
[3]
  logP: 2.4

## CNc1ccc(-c2nc3ccc(-c4nc5ccccc5s4)cc3s2)cc1
[7]
  logD: 2.34

## COc1cccc2c1C(=O)c1c(O)c3c(c(O)c1C2=O)CC(O)(C(C)=O)CC3OC1CC(NC(C)=O)C(O)C(C)O1 (stereo not given)
[17]
  logD: 1.85

## COC(=O)CCC(NC(=O)c1ccc(N(C)Cc2cnc3nc(N)nc(N)c3n2)cc1)C(=O)OC (stereo not given)
[11]
  logD: 0.54

## Cc1cc(C(=O)N2Cc3ccc(C(=O)N(CCO)CCF)n3Cc3ccccc32)ccc1-c1ccccc1C(F)(F)F
[15]
  logP: 4.89

## CNC(=O)C(O)C1(O)CCC2C3CCC4=CC(=O)C=CC4(C)C3C(O)CC21C (stereo not given)
[13]
  logD: 1

## O=C(CNc1ccccc1)Nc1ccc(Cl)cc1C(=O)c1ccccc1
[19]
  logP: 4.24

## C[C@]12CCC(=O)C=C1CC[C@@H]1[C@@H]2[C@@H](O)C[C@@]2(C)[C@H]1CC[C@]2(O)C(=O)COC(=O)CCC(N)=O
[8]
  logP: 1.43

## CO[C@H]1CC[C@H]2[C@@H]3CC[C@H]4CC(=O)[C@H](C)C[C@]4(C)[C@H]3CC[C@]12C
other
  logP: 5.43

## CCCCCC(=O)OCC(=O)[C@@]1(O)CC[C@H]2[C@@H]3CCC4=CC(=O)CC[C@]4(C)[C@H]3C(=O)C[C@@]21C
[9]
  logP: 3.3

## CC(=O)OCC1=C(C(=O)OCOC(=O)C(C)(C)C)N2C(=O)C(NC(=O)Cc3cccs3)C2SC1 (stereo not given)
[1]; pH 4.6
  logD: 1.57

## CCCCCC(=O)OCC(=O)[C@@]1(O)CC[C@H]2[C@@H]3CCC4=CC(=O)CC[C@]4(C)[C@H]3[C@@H](O)C[C@@]21C
[9]
  logP: 3.7

## CCCCCCCCc1ccc(OC(=O)Cn2ccc3cc(C(=O)O)ccc32)cc1
[18]
  logP: 6.3

## Cc1ccc(N2C(=O)C(CCCNS(=O)(=O)c3ccc(OC(F)(F)F)cc3)C2c2ccc(NS(C)(=O)=O)cc2)cc1 (stereo not given)
[2]
  logP: 3.45

## O=C(Nc1ccc2ncnc(Nc3ccc(F)c(Cl)c3)c2c1)c1ccc(I)cc1
[6]
  logP: 4.83

## Cc1cc(C(=O)N2Cc3ccc(C(=O)N(CCO)CCO)n3Cc3ccccc32)ccc1-c1ccccc1CCF
[15]
  logP: 3.14

## Nc1ccc(C(=O)OCC(=O)Nc2ccc(Cl)cc2C(=O)c2ccccc2)cc1
[19]
  logP: 4.78

## CCN1CC(C(O)C(CC2CCCCC2)NC(=O)[C@H](Cc2cnc[nH]2)NC(=O)[C@H](Cc2ccc(OC)cc2)NC(=O)N(C)CC(O)CO)OC1=O (stereo not given in full)
[16]
  logD: 1.42

## O=C(Nc1ccc2ncnc(Nc3ccc(F)c(Cl)c3)c2c1)c1ccc(F)cc1
[6]
  logP: 4.55

## COc1cccc2c1C(=O)c1c(O)c3c(c(O)c1C2=O)C[C@@](O)(C(C)=O)C[C@@H]3O[C@@H]1C[C@@H](N(C)C)[C@@H](O)[C@@H](C)O1
[17]
  logD: 1.37

## CCCNC(=O)[C@H](O)[C@@]1(O)CC[C@H]2[C@@H]3CCC4=CC(=O)C=C[C@]4(C)[C@H]3[C@@H](O)C[C@@]21C
[13]
  logD: 1.43

## Cc1cc(=O)c(C(=O)Nc2ccccc2Cl)c(C)n1CCc1ccccc1
[5]
  logP: 2.79

## CCN1CC(C(O)C(CC2CCCCC2)NC(=O)C(Cc2cnc[nH]2)NC(=O)N(Cc2ccc(OC)cc2)C(=O)N(C)CCOCOC)OC1=O (stereo not given)
[16]
  logD: 2.3

## COc1cccc2c1C(=O)c1c(O)c3c(c(O)c1C2=O)CC(O)(C(C)=O)CC3OC1CC(NC(=O)CN(C)C)C(O)C(C)O1 (stereo not given)
[14]; pH 7.8
  logD: 1.26

## O=C(CNc1ccc(O)cc1)Nc1ccc(Cl)cc1C(=O)c1ccccc1
[19]
  logP: 3.5

## Cc1cccc2c1OP(=O)(OCC1OC(n3cc(/C=C/Br)c(=O)[nH]c3=O)CC1OC(=O)C1CCCN1)OC2 (stereo not given)
[3]
  logP: -0.4

## C=CCCN1C=CCC(C(=O)OC2CCC3C4CCc5cc(O)ccc5C4CC23C)=C1 (stereo not given)
[12]
  logP: 3.96

Reference: the SangsterLogP compilation
